The term pIC50 denotes the IC50 on a negative log10 scale, so that one unit is a factor of ten.

pIC50: −log10 of the molar value.

Sequence of human PDE10A (Q9Y233 other isoform, or with tags, fused parts or gaps): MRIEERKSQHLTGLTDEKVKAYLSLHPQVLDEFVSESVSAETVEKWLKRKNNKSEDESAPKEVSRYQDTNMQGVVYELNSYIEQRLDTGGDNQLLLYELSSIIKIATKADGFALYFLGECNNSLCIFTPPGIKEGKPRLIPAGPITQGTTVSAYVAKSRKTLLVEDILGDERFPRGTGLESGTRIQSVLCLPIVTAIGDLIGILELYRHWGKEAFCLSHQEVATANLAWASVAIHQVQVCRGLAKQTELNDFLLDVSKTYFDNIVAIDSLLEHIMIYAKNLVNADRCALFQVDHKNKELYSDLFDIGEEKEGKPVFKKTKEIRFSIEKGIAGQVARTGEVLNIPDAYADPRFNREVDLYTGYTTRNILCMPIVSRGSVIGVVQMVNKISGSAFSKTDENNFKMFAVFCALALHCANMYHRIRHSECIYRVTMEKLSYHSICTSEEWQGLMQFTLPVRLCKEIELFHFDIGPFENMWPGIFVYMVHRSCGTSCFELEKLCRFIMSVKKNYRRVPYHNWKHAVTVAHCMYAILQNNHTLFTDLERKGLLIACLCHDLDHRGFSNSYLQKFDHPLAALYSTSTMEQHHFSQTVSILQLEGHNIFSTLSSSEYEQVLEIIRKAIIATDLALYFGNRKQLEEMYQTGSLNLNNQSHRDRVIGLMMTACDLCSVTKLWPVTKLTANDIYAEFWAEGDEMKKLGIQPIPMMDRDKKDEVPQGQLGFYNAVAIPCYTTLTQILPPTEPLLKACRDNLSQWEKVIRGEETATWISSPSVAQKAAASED

The test addresses human PDE10A (Homo sapiens (Human), UniProt Q9Y233). Description: human PDE10A full length Scintillation Proximity Assay (SPA). It is filed as biochemical. The settings on record: PDE10A full length enzyme, 50 nM cGMP / [3H]-cGMP substrate, 20 minutes at room temperature. Here is the method: The following test was carried out in order to determine the activity of the compounds of the present invention. PDE10 activity of the compounds of the present invention was determined using a Scintillation Proximity Assay (SPA)-based method similar to the one previously described (Fawcett, L. et al., Proc Natl Acad Sci USA (2000) 97(7):3702-3707).
The human PDE10A full length assay was performed in 96-well micro titer plates. The reaction mixture of 50 μl contained 20 mM HEPES pH=7.5/10 mM MgCl2/0.05 mg/ml BSA (Sigma cat. # A-7906), 50 nM cGMP (Sigma, cat. # G6129) and 50 nM [3H]-cGMP (GE Healthcare, cat. # TRK392 S.A. 13.2 Ci/mmol), 3.75 ng/well PDE10A enzyme (Enzo Life Science, Lausen, Switzerland cat # SE-534) with or without a specific test compound. A range of concentrations of the potential inhibitor was used to generate data for calculating the concentration of inhibitor resulting in 50% of the effect (e.g. IC50, the concentration of the competitor inhibiting PDE10A activity by 50%). Non-specific activity was tested without the enzyme. The reaction was initiated by the addition of the substrate solution (cGMP and [3H]-cGMP) and allowed to progress for 20 minutes at room temperature. The reaction was terminated by adding 25 μl of YSi-SPA scintillation beads (GE Healthcare, cat. # RPNQ0150) in 18 mM zinc sulphate solution (stop reagent). After 1 h under shaking, the plate was centrifuged one minute at 170 g to allow beads to settle. Afterwards, radioactive counts were measured on a Perkin Elmer Top-Count Scintillation plate reader.
On the technique in general: Scintillation proximity formats need no separation of bound from free tracer.
`Cc1ncc(C)n2nc(CCc3nc(N4CC(C)C4)nn3C)nc12` [Example 89, 5,8-Dimethyl-2-{2-[2-methyl-5-(3-methyl-azetidin-1-yl)-2H-[1,2,4]triazol-3-yl]-ethyl}-[1,2,4]triazolo[1,5-a]pyrazine] gave a pIC50 of 6.97. For the compound `Cc1ncc(C)n2nc(CCc3nc(N4CCC5(CC5)C4)nn3C)nc12` [Example 92, 2-{2-[5-(5-Aza-spiro[2.4]hept-5-yl)-2-methyl-2H-[1,2,4]triazol-3-yl]-ethyl}-5,8-dimethyl-[1,2,4]triazolo[1,5-a]pyrazine], the pIC50 was 7.86.

`Cc1c(Cl)cc(Br)c2nc(CCc3nc(N4CCCC4)nn3C)nn12` [Example 71, 8-Bromo-6-chloro-5-methyl-2-[2-(2-methyl-5-pyrrolidin-1-yl-2H-[1,2,4]triazol-3-yl)-ethyl]-[1,2,4]triazolo[1,5-a]pyridine] had a pIC50 of 9.00.

In turn, `Cn1nc(N2CCCC2)nc1CCc1nc2cc(C(F)(F)F)c(F)c(N)n2n1` [Example 63, 6-Fluoro-2-(2-(1-methyl-3-(pyrrolidin-1-yl)-1H-1,2,4-triazol-5-yl)ethyl)-7-(trifluoromethyl)-[1,2,4]triazolo[1,5-a]pyridin-5-amine] showed a pIC50 of 7.49. With `COC1CCN(c2nc(CCc3nc4c(C)ncc(C)n4n3)n(C)n2)C1` (centres unmarked) [Example 43, 2-{2-[5-(3-Methoxy-pyrrolidin-1-yl)-2-methyl-2H-[1,2,4]triazol-3-yl]-ethyl}-5,8-dimethyl-[1,2,4]triazolo[1,5-a]pyrazine] the figure was 7.07; with `CCn1nc(N2CCCC2)nc1/C=C/c1nc2nc(C)cc(C)n2n1` [Example 3, 2-[2-(2-Ethyl-5-pyrrolidin-1-yl-2H-[1,2,4]triazol-3-yl)-vinyl]-5,8-dimethyl-[1,2,4]triazolo[1,5-a]pyrimidine], 6.69. With `Cc1ncc(C)n2nc(CCc3nc(N4CC[C@@H](F)C4)nn3C)nc12` [Example 96, 2-{2-[5-((R)-3-Fluoro-pyrrolidin-1-yl)-2-methyl-2H-[1,2,4]triazol-3-yl]-ethyl}-5,8-dimethyl-[1,2,4]triazolo[1,5-a]pyrazine] the figure was 7.97; with `Cc1c(Cl)cc(C(F)(F)F)c2nc(CCc3nc(N4CCCC4)n(C4CC4)n3)nn12` [Example 131, 6-Chloro-2-(2-(1-cyclopropyl-5-(pyrrolidin-1-yl)-1H-1,2,4-triazol-3-yl)ethyl)-5-methyl-8-(trifluoromethyl)-[1,2,4]triazolo[1,5-a]pyridine], 8.80; with `Cc1ncc(C)n2nc(CCc3nc(N4CCC4)nn3C)nc12` [Example 10, 2-[2-(5-Azetidin-1-yl-2-methyl-2H-[1,2,4]triazol-3-yl)-ethyl]-5,8-dimethyl-[1,2,4]triazolo[1,5-a]pyrazine], 8.85. With `Cc1c(Cl)cc(C(F)(F)F)c2nc(CCc3nc(N4CCCC4)nn3C)nn12` [Example 69, 6-Chloro-5-methyl-2-[2-(2-methyl-5-pyrrolidin-1-yl-2H-[1,2,4]triazol-3-yl)-ethyl]-8-trifluoromethyl-[1,2,4]triazolo[1,5-c]pyridine] the figure was 9.30; with `Cc1ncc(C)n2nc(CCc3nc(N4CC[C@@H](C)C4)nn3C)nc12` [Example 116, 5,8-Dimethyl-2-{2-[2-methyl-5-((R)-3-methyl-pyrrolidin-1-yl)-2H-[1,2,4]triazol-3-yl]-ethyl}-[1,2,4]triazolo[1,5-a]pyrazine], 8.05.

Regarding `CCn1nc(CCc2nc3c(C)ncc(C)n3n2)nc1N1CCCC1` [Example 48, 2-(2-(1-Ethyl-5-(pyrrolidin-1-yl)-1H-1,2,4-triazol-3-yl)ethyl)-5,8-dimethyl-[1,2,4]triazolo[1,5-a]pyrazine], the pIC50 is 7.55.

In turn, `Cc1c(Cl)cc(C(F)(F)F)c2nc(CCc3nc(N4CC[C@@H](F)C4)nn3C)nn12` [Example 127, (R)-6-Chloro-2-(2-(3-(3-fluoropyrrolidin-1-yl)-1-methyl-1H-1,2,4-triazol-5-yl)ethyl)-5-methyl-8-(trifluoromethyl)-[1,2,4]triazolo[1,5-a]pyridine] had a negative-log IC50 (pIC50) of 8.57. With `Cc1ncc(C)n2nc(CCc3nc(N4CCC[C@H]4C)nn3C)nc12` [Example 101, 5,8-Dimethyl-2-{2-[2-methyl-5-((R)-2-methyl-pyrrolidin-1-yl)-2H-[1,2,4]triazol-3-yl]-ethyl}-[1,2,4]triazolo[1,5-a]pyrazine] the figure was 7.24; with `COc1ccc(Cn2nc(N3CCCC3)nc2CCc2nc3c(C)ncc(C)n3n2)cc1` [Example 20, 2-{2-[2-(4-Methoxy-benzyl)-5-pyrrolidin-1-yl-2H-[1,2,4]triazol-3-yl]-ethyl}-5,8-dimethyl-[1,2,4]triazolo[1,5-a]pyrazine], 8.30; with `CCN(CC)c1nc(CCc2nc3c(C)ncc(C)n3n2)n(C)n1` [Example 59, {5-[2-(5,8-Dimethyl-[1,2,4]triazolo[1,5-a]pyrazin-2-yl)-ethyl]-1-methyl-1H-[1,2,4]triazol-3-yl}-diethyl-amine], 7.30. With `Cc1c(Cl)cc(OC(F)F)c2nc(CCc3nc(N4CCCC4)nn3C)nn12` [Example 95, 6-Chloro-8-difluoromethoxy-5-methyl-2-[2-(2-methyl-5-pyrrolidin-1-yl-2H-[1,2,4]triazol-3-yl)-ethyl]-[1,2,4]triazolo[1,5-c]pyridine] the figure was 9.64. With `Cc1nc(C)c2nc(CCc3nc(N4CCCC4)nn3C)nn2c1C` [Example 41, 5,6,8-Trimethyl-2-(2-(1-methyl-3-(pyrrolidin-1-yl)-1H-1,2,4-triazol-5-yl)ethyl)-[1,2,4]triazolo[1,5-a]pyrazine] the figure was 7.43.

`Clc1ccc2ncc(CCc3n[nH]c(N4CCCC4)n3)nc2c1` [Example 134, 7-chloro-2-(2-(5-(pyrrolidin-1-yl)-1H-1,2,4-triazol-3-yl)ethyl)quinoxaline] showed a pIC50 of 7.48. This pIC50 and that of the compound before are within 0.2 log units of each other. With `Cc1ncc(C)n2nc(CCc3nc(N4CCCC4)nn3CC(F)F)nc12` [Example 110, 2-{2-[2-(2,2-Difluoro-ethyl)-5-pyrrolidin-1-yl-2H-[1,2,4]triazol-3-yl]-ethyl}-5,8-dimethyl-[1,2,4]triazolo[1,5-a]pyrazine] the figure was 8.49. With `Cc1nc2ccccc2nc1CCc1nc(N2CCCC2)nn1C` [Example 16, 2-Methyl-3-[2-(2-methyl-5-pyrrolidin-1-yl-2H-[1,2,4]triazol-3-yl)-ethyl]-quinoxaline] the figure was 7.21; with `Cc1ncc(C)n2nc(CCc3nc(N4CC(F)(F)C4)nn3C)nc12` [Example 90, 2-{2-[5-(3,3-Difluoro-azetidin-1-yl)-2-methyl-2H-[1,2,4]triazol-3-yl]-ethyl}-5,8-dimethyl-[1,2,4]triazolo[1,5-a]pyrazine], 6.32; with `COC[C@H]1CCCN1c1nc(CCc2nc3c(C)ncc(C)n3n2)n(C)n1` [Example 124, 2-{2-[5-((R)-2-Methoxymethyl-pyrrolidin-1-yl)-2-methyl-2H-[1,2,4]triazol-3-yl]-ethyl}-5,8-dimethyl-[1,2,4]triazolo[1,5-a]pyrazine], 7.85.

In turn, `Cc1ncc(C)n2nc(CCc3nc(N4CC[C@H](F)C4)nn3C)nc12` [Example 94, 2-{2-[5-((S)-3-Fluoro-pyrrolidin-1-yl)-2-methyl-2H-[1,2,4]triazol-3-yl]-ethyl}-5,8-dimethyl-[1,2,4]triazolo[1,5-a]pyrazin] gave a pIC50 of 6.91. `Cc1ccc2nc(CCc3nc(N4CCCC4)nn3C)nn2c1C` [Example 40, 5,6-Dimethyl-2-(2-(1-methyl-3-(pyrrolidin-1-yl)-1H-1,2,4-triazol-5-yl)ethyl)-[1,2,4]triazolo[1,5-a]pyridine] had a negative-log IC50 (pIC50) of 7.99. As for `Cc1c(Cl)cc(Cl)c2nc(CCc3n[nH]c(N4CCCC4)n3)nn12` [Example 68, 6,8-Dichloro-5-methyl-2-[2-(5-pyrrolidin-1-yl-1H-[1,2,4]triazol-3-yl)-ethyl]-[1,2,4]triazolo[1,5-a]pyridine], the pIC50 was 9.66. Against the preceding compound, the pIC50 is 1.67 log units higher. With `Cc1cc(C)n2nc(CCc3nc(N4CCC4)nn3C)nc2n1` [Example 21, 2-[2-(5-Azetidin-1-yl-2-methyl-2H-[1,2,4]triazol-3-yl)-ethyl]-5,7-dimethyl-[1,2,4]triazolo[1,5-a]pyrimidine] the figure was 7.04. With `Cc1ncc(C)n2nc(CCc3nc(N4CCC[C@@H]4C(F)(F)F)nn3C)nc12` [Example 114, 5,8-Dimethyl-2-{2-[2-methyl-5-((R)-2-trifluoromethyl-pyrrolidin-1-yl)-2H-[1,2,4]triazol-3-yl]-ethyl}-[1,2,4]triazolo[1,5-a]pyrazine] the figure was 7.47. With `Cc1c(Cl)cc(OC2CCOCC2)c2nc(CCc3nc(N4CCCC4)nn3C)nn12` [Example 120, 6-Chloro-5-methyl-2-(2-(1-methyl-3-(pyrrolidin-1-yl)-1H-1,2,4-triazol-5-yl)ethyl)-8-(tetrahydro-2H-pyran-4-yloxy)-[1,2,4]triazolo[1,5-a]pyridine] the figure was 9.44.

The values above are taken from patent US9394311B2, “Triazolo compounds as PDE10 inhibitors” (Hoffmann-La Roche Inc., priority 2012, dated 2016).
